What was measured:
[1] = target: T1, JAK1-JH2 domain (Homo sapiens, UniProt P23458); experiment: Binding activity test for JH2 domain of JAK1 (Tb-antibody/tracer FRET); conditions: JH2 domain enzyme; 60 min at 25°C, then 4°C overnight; read-out: JAK1 JH2 Binding IC50
T1 construct: JAK1-JH2 domain or TYK2-JH2 domain enzyme in assay buffer
Method: Binding Activity test for JH2 domain of JAK1 and TYK2 […] Add 8μL/well in echo source plate, echo will add 75nL/well with 3-fold serial dilution for 11 points in assay plate. 75nL DMSO for high control and low control. […] For low control, add 5μL/well assay buffer. And then spin down at 1000rpm and centrifuge for 30 seconds. After enzyme system prepared, add 5μL of Tb-antibody solution into each well of assay plate. Spin down at 1000 rpm and centrifuge for 30sec. After Tb-antibody added, also add 5μL of tracer into the assay plate. Spin down at 1000rpm and centrifuge for 30sec. Incubate for […] at 25°C firstly and then continue to incubate the plate at 4°C overnight. Read by envision in FRET mode. The Luminescence value was recorded by a multi-label reader Envision (PerkinElmer). […] Table 2. IC50 on JH2 domain activity (nM)

[2] = target: T2, TYK2-JH2 domain (Homo sapiens, UniProt P29597); experiment: Binding activity test for JH2 domain of TYK2 (Tb-antibody/tracer FRET); conditions: for IC50: JH2 domain enzyme, 60 min at 25°C, then 4°C overnight, read-out: TYK2 JH2 Binding IC50; for JAK1/TYK2 selectivity: ratio of JAK1 JH2 to TYK2 JH2 binding IC50
T2 construct: JAK1-JH2 domain or TYK2-JH2 domain enzyme in assay buffer
How it was run: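 IC50 values (nM) come from TR-FRET readings taken after a 25°C incubation followed by overnight at 4°C. Each well held JH2 domain protein, Tb-antibody, tracer and test compound titrated in 11 threefold steps, with DMSO high and low controls.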

[3] = test system: Ba/F3-FL-TYK2-P760L cells; experiment: Anti-proliferative assay in engineered Ba/F3 cells (Cell-Titer Glo, 72 h); type: cell-based; conditions: Mus musculus, BaF3, 72 h, 72 h compound treatment, concentration that causes 50% growth inhibition, read-out: Baf3-FL-T2P760L
Method: Dimerization domain of Tel protein fused with JAK kinase domain was permanently transduced into Ba/F3 cells, whose proliferation is dependent on JAK activity in the absence of IL-3 induction. These engineered Ba/F3-FL-TYK2-P760L cells were used to monitor JAK inhibitory activities of the compounds in the cellular. Ba/F3 cells were cultured in RPMI-1640 (Corning) containing 10% fetal bovine serum. Cells were seeded at 2000/well of white flat bottom 96-well plates. The well containing medium only was used as background control. After 24h growth, cells were treated with compounds. The test compounds were dissolved in DMSO to a stock concentration of 20 mM. 3-fold serially diluted compounds for 9 concentrations with top concentration of 20 µM was added into the each well. The final DMSO concentration was 0.1%. The cells continued to grow at 37°C in 5% CO2 for 72 h after compound treatment. The viability was measured by cellular ATP determination using the Cell-Titer Glo luciferase reagent (Promega). The Luminescence value was recorded by a multi-label reader Envision (PerkinElmer). Inhibition Rate was calculated relative to vehicle (DMSO) treated control wells using following formula: % Inhibition = 100−(RLU_compound−RLU_blank)/(RLU_control−RLU_blank) × 100% [formula] wherein • RLU_compound = the relative light unit of cells treated with test compounds • RLU_blank = the relative light unit of medium with DMSO only • RLU_control = the relative light unit of cells treated with DMSO only
Table 4. Ba/F3-FL-TYK2-P760L Cells IC50 Values of Exemplary Compounds

T1 sequence (P23458 583-855 limits assumed): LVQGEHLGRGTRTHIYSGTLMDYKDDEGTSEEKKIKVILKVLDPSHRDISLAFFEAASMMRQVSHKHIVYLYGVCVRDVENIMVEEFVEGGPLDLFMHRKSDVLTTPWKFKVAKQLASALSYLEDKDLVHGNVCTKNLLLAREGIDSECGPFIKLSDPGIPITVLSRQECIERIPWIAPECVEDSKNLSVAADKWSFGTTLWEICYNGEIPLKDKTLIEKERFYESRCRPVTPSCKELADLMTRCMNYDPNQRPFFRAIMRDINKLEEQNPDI
T2 sequence (P29597 589-875 limits assumed): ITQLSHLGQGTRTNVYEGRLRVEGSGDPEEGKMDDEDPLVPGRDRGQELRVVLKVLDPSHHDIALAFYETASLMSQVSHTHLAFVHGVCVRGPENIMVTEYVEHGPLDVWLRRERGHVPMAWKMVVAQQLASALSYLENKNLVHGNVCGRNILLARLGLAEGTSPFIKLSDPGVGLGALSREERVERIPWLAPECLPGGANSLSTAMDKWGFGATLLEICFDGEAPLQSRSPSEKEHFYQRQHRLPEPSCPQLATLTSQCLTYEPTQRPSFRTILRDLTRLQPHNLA

SMILES | IC50 [1] | IC50 [2] | JAK1/TYK2 selectivity [2] | IC50 [3]
COC(=O)c1cnc(NC(=O)C2CC2)cc1Nc1nsc2ccc(C(OC)C(F)(F)F)c(OC)c12 (single isomer, unassigned) [Example 67A, Methyl (S*)-6-(cyclopropanecarboxamido)-4-((4-methoxy-5-(2,2,2-trifluoro-1-methoxyethyl)benzo[d]isothiazol-3-yl)amino)nicotinate] | 18.6 nM | 0.21 nM | 88.72 | –
[2H]C([2H])([2H])CC(=O)c1cnc(NC(=O)C2CC2)cc1Nc1nn(C)c2ccc([C@@H](O)C(F)(F)F)c(OC)c12 [Example 54B, (R)-N-(4-((4-methoxy-1-methyl-5-(2,2,2-trifluoro-1-hydroxyethyl)-1H-indazol-3-yl)amino)-5-(propanoyl-3,3,3-d3)pyridin-2-yl)cyclopropanecarboxamide] | 7.08 nM | 0.433 nM | 16.36 | –
CCn1nc(Nc2cc(NC(=O)C3CC3)ncc2C(=O)OC)c2c(OC)c(C(OC)C(F)(F)F)ccc21 (single isomer, unassigned) [Example 66A, Methyl (R*)-6-(cyclopropanecarboxamido)-4-((1-ethyl-4-methoxy-5-(2,2,2-trifluoro-1-methoxyethyl)-1H-indazol-3-yl)amino)nicotinate] | > 298 nM | 2.81 nM | 106.23 | –
[2H]C([2H])([2H])OC(=O)c1nnc(NC(=O)C2CC2)cc1Nc1nc2ccc(N3CC(OC)C3)cn2n1 [Example 125, Methyl-d3 6-(cyclopropanecarboxamido)-4-((6-(3-methoxyazetidin-1-yl)-[1,2,4]triazolo[1,5-a]pyridin-2-yl)amino)pyridazine-3-carboxylate] | > 298 nM | 52.4 nM | >5.70 | –
CCn1nc(Nc2cc(NC(=O)C3CC3)ncc2C(=O)OC)c2c(OC)c(C(O)C(F)(F)F)ccc21 (single isomer, unassigned) [Example 70B, Methyl (R*)-6-(cyclopropanecarboxamido)-4-((1-ethyl-4-methoxy-5-(2,2,2-trifluoro-1-hydroxyethyl)-1H-indazol-3-yl)amino)nicotinate] | 47.2 nM | 2.12 nM | 22.26 | –
[2H]C([2H])([2H])NC(=O)c1cnc(NC(=O)C2CC2)cc1Nc1nn(C([2H])([2H])[2H])c2ccc([C@H](OC)C(F)(F)F)c(OC)c12 [Example 153, (S)-6-(cyclopropanecarboxamido)-4-((4-methoxy-1-(methyl-d3)-5-(2,2,2-trifluoro-1-methoxyethyl)-1H-indazol-3-yl)amino)-N-(methyl-d3)nicotinamide] | – | 0.055 nM | – | 0.235 nM
COC(=O)c1cnc2cc1Nc1nn(c3ccc(C(OC)C(F)(F)F)c(OC)c13)CCOCc1nc(ccc1F)N2 (centres unmarked) [Example 179, Methyl 12-fluoro-23-methoxy-22-(2,2,2-trifluoro-1-methoxyethyl)-15-oxa-2,6,8,18,25,26-hexaazapentacyclo[16.6.1.1^{3,7}.1^{9,13}.0^{19,24}]heptacosa-1(25),3(27),4,6,9,11,13(26),19,21,23-decaene-4-carboxylate] | – | 0.481 nM | – | 30.9 nM
COC(=O)c1cnc(NC(=O)C2CC2)cc1Nc1nn(C)c2ccc(CO)c(OC)c12 [Example 164, Methyl 6-(cyclopropanecarboxamido)-4-((5-(hydroxymethyl)-4-methoxy-1-methyl-1H-indazol-3-yl)amino)nicotinate] | – | 0.481 nM | – | 50.1 nM
CCC(F)(F)c1cnc(NC(=O)C2CC2)cc1Nc1nccc2c1N(C)C(C)c1nn(C)nc1-2 (centres unmarked) [Example 178, N-(5-(1,1-Difluoropropyl)-4-((2,4,5-trimethyl-4,5-dihydro-2H-[1,2,3]triazolo[4,5-c][1,7]naphthyridin-6-yl)amino)pyridin-2-yl)cyclopropanecarboxamide] | – | 3.16 nM | – | 35 nM
[2H]C([2H])([2H])CC(=O)c1cnc(NC(=O)C2CC2)cc1Nc1nn(C)c2ccc(C(OC)C3(F)CC3)c(OC)c12 (centres unmarked) [Example 150, N-(4-((5-((1-fluorocyclopropyl)(methoxy)methyl)-4-methoxy-1-methyl-1H-indazol-3-yl)amino)-5-(propanoyl-3,3,3-d3)pyridin-2-yl)cyclopropanecarboxamide] | – | 0.154 nM | – | 32.7 nM
[2H]C([2H])([2H])NC(=O)c1nnc(NC(=O)C2CC2)cc1Nc1nn(C)c2ccc([C@H](OC([2H])([2H])[2H])C(F)(F)F)c(OC)c12 [Example 135, (S)-6-(cyclopropanecarboxamido)-4-((4-methoxy-1-methyl-5-(2,2,2-trifluoro-1-(methoxy-d3)ethyl)-1H-indazol-3-yl)amino)-N-(methyl-d3)pyridazine-3-carboxamide] | – | 0.07 nM | – | 0.327 nM
[2H]C([2H])([2H])CC(=O)c1cnc(NC(=O)C2CC2)cc1Nc1nn(C)c2ccc(COC)c(OC)c12 [Example 132, N-(4-((4-methoxy-5-(methoxymethyl)-1-methyl-1H-indazol-3-yl)amino)-5-(propanoyl-3,3,3-d3)pyridin-2-yl)cyclopropanecarboxamide] | – | 0.174 nM | – | 25.9 nM
CCC(=O)c1cnc(NC(=O)C2CC2)nc1Nc1cccc(-c2cnn(C)n2)c1OC [Example 158, N-(4-((2-methoxy-3-(2-methyl-2H-1,2,3-triazol-4-yl)phenyl)amino)-5-propionylpyrimidin-2-yl)cyclopropanecarboxamide] | – | 0.496 nM | – | 68.4 nM
COC(=O)c1cnc(NC(=O)C2CC2)cc1Nc1csc2ccc(C(OC)C(F)(F)F)c(OC)c12 (centres unmarked) [Example 111, Methyl 6-(cyclopropanecarboxamido)-4-((4-methoxy-5-(2,2,2-trifluoro-1-methoxyethyl)benzo[b]thiophen-3-yl)amino)nicotinate] | – | 0.364 nM | – | 19 nM
[2H]C([2H])([2H])Oc1c([C@@H](OC)C(F)(F)F)ccc2c1c(Nc1cc(NC(=O)C3CC3)ncc1C(=O)OC)nn2C [Example 120B, Methyl (R)-6-(cyclopropanecarboxamido)-4-((4-(methoxy-d3)-1-methyl-5-(2,2,2-trifluoro-1-methoxyethyl)-1H-indazol-3-yl)amino)nicotinate] | – | 0.442 nM | – | 107 nM
COC(=O)c1cnc(NC(=O)C2CC2)cc1Nc1nn(C)c2ccc(C3(C(F)(F)F)CC3)c(OC)c12 [Example 161, Methyl 6-(cyclopropanecarboxamido)-4-((4-methoxy-1-methyl-5-(1-(trifluoromethyl)cyclopropyl)-1H-indazol-3-yl)amino)nicotinate] | – | 0.568 nM | – | 74 nM
CCC(F)(F)c1cnc(NC(=O)C2CC2)cc1Nc1nn(C)c2ccc(C(O)C(F)(F)F)c(OC)c12 (centres unmarked) [Example 129, N-(5-(1,1-difluoropropyl)-4-((4-methoxy-1-methyl-5-(2,2,2-trifluoro-1-hydroxyethyl)-1H-indazol-3-yl)amino)pyridin-2-yl)cyclopropanecarboxamide] | – | 0.466 nM | – | 1.41 nM
COC(=O)c1cnc(NC(=O)C2CC2)cc1Nc1nn(C)c2ccc(C(OC)C(C)OC)c(OC)c12 (centres unmarked) [Example 165, Methyl 6-(cyclopropanecarboxamido)-4-((5-(1,2-dimethoxypropyl)-4-methoxy-1-methyl-1H-indazol-3-yl)amino)nicotinate] | – | 2.71 nM | – | 281 nM

Source: EP4813463A2, “TYK2 INHIBITORS AND COMPOSITIONS AND METHODS THEREOF” (Lynk Pharmaceuticals Co. Ltd., priority 2023, dated 2024)
